Experimental data from US10829473B2, “Modulators of the cystic fibrosis transmembrane conductance regulator protein and methods of use” (AbbVie Overseas S.Á.R.L., priority 2017, dated 2020).
Like-named read-outs stand apart in the source and are kept apart here. Marks after values point to notes of the source that are not given here.

Target: T1, F508delCFTR (Homo sapiens, UniProt P13569, DEL508-508)
T1 construct: expressed in transfected cells; host or cells: CFBE41o- human lung derived epithelial cells (CFBE41o-F508delCFTR-HRP), doxycycline-inducible
T1 sequence (P13569 with tags, fused parts or gaps DEL508-508): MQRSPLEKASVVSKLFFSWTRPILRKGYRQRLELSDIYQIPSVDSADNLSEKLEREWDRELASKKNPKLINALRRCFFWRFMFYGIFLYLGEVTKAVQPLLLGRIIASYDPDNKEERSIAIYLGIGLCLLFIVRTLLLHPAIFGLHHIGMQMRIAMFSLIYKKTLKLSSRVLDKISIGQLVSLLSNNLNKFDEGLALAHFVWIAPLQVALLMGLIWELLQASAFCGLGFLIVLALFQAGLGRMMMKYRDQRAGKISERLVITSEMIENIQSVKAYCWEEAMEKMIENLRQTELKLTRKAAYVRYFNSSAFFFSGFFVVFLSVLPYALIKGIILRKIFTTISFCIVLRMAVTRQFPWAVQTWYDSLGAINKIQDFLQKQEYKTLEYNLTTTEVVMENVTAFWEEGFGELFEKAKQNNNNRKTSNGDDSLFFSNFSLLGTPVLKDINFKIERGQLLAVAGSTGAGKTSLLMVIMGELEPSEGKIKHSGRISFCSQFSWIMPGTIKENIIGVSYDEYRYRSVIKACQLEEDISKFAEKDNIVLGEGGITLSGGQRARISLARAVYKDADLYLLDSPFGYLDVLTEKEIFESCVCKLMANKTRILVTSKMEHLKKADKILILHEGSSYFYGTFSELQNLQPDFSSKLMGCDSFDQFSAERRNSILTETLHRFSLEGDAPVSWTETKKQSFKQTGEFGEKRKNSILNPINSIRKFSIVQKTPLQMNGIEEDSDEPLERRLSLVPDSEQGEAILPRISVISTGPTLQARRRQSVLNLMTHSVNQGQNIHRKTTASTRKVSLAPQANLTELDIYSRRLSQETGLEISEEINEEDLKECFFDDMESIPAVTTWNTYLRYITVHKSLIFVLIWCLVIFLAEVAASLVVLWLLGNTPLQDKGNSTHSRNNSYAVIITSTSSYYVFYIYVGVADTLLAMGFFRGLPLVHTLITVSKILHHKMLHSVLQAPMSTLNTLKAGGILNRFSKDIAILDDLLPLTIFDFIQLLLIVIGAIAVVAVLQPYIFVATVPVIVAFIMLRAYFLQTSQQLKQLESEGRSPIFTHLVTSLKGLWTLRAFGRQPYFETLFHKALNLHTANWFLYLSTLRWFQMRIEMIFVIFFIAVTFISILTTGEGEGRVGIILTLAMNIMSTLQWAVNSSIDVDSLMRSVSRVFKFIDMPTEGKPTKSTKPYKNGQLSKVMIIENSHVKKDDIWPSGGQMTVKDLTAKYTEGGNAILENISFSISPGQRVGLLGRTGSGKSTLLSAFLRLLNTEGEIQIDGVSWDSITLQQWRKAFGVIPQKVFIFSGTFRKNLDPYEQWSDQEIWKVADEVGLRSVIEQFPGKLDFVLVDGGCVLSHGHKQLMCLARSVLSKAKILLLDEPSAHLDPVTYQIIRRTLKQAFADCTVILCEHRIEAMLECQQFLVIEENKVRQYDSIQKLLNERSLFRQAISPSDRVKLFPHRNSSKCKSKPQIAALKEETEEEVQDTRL
Assay: Cell Surface Expression-Horse Radish Peroxidase (CSE-HRP) Assay;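 on EC50 (with co-corrector): co-corrector chromenyl benzoic acid corrector at 2 or 3 µM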;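 on Maximum % activity (without co-corrector): % of on-plate positive control chromenyl benzoic acid corrector at 2 or 3 µM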
Assay type: cell-based
Details: for Maximum % activity (with co-corrector) / Emax: maximum at any tested concentration; for Emax: read-out: Maximum % activity (without co-corrector)
Outline: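 Corrector compounds were given as 8-point 3-fold series from 20 or 30 μM, with or without a 2 μM co-corrector, for 18-24 h at 33 °C. Surface HRP was read by luminol luminescence as % of positive control; variable-Hill-slope sigmoidal fitting gave EC50 from triplicate plates.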

[1] = test compound with co-corrector
[2] = test compound with co-corrector, read-out: EC50 (with co-corrector)
[3] = test compound without co-corrector
[4] = test compound without co-corrector, read-out: EC50 (without co-corrector)
[5] = test compound alone, without co-corrector, read-out: EC50 (without co-corrector)
[6] = with co-corrector, read-out: EC50 (with co-corrector)

Structure (SMILES)	Maximum % activity (with co-corrector) [1]	EC50 [2] [µM]	Emax [3] [%]	EC50 [4] [µM]	EC50 [5] [µM]	Maximum % activity (with co-corrector) (with co-corrector)	EC50 [6] [µM]	Emax (without co-corrector) [%]	EC50 (with co-corrector) [1]	EC50 (without co-corrector) [3]
CC(C)Oc1ncc(N(C)C)cc1C1(C(=O)NS(=O)(=O)c2cccc3ncccc23)CC1 [Example GI-71, 1-{5-(dimethylamino)-2-[(propan-2-yl)oxy]pyridin-3-yl}-N-(quinoline-5-sulfonyl)cyclopropane-1-carboxamide]	+++ (≥350)	< 3	> 150	3 to 10						
Cc1ccc(C2(C(=O)NS(=O)(=O)c3cccc4ncccc34)CC2)c(OC(C)C)n1 [Example GI-80, 1-{6-methyl-2-[(propan-2-yl)oxy]pyridin-3-yl}-N-(quinoline-5-sulfonyl)cyclopropane-1-carboxamide]	+++ (≥350)	< 3	> 150	< 3						
CCc1ccc(O[C@H]2CCOC2)c(C2(C(=O)NS(=O)(=O)c3cccc4ncccc34)CC2)c1 [Example I-117, 1-(5-ethyl-2-{[(3S)-oxolan-3-yl]oxy}phenyl)-N-(quinoline-5-sulfonyl)cyclopropane-1-carboxamide]					< 3	+++ (≥350)	< 3	> 150		
COc1ncc(C(F)(F)F)cc1C1(C(=O)NS(=O)(=O)c2cccc3ncn(C)c23)CC1 [Example III-96, 1-[2-methoxy-5-(trifluoromethyl)pyridin-3-yl]-N-(1-methyl-1H-benzimidazole-7-sulfonyl)cyclopropane-1-carboxamide]					3 to 10	+++ (≥350)	3 to 10	50 to 150		
COc1ncc(C)cc1C1(C(=O)NS(=O)(=O)c2cccc3ccccc23)CC1 [Example I-15, 1-(2-methoxy-5-methylpyridin-3-yl)-N-(naphthalene-1-sulfonyl)cyclopropane-1-carboxamide]					3 to 10	+++ (≥350)	3 to 10	> 150		
COC[C@@H](C)Oc1ccc(C)cc1C1(C(=O)NS(=O)(=O)c2cccc3nc(C)ccc23)CC1 [Example I-107, 1-(2-{[(2R)-1-methoxypropan-2-yl]oxy}-5-methylphenyl)-N-(2-methylquinoline-5-sulfonyl)cyclopropane-1-carboxamide]					< 3	+++ (≥350)	< 3	> 150		
CNC1(c2ccc(OC)c(C3(C(=O)NS(=O)(=O)c4cccc5ncccc45)CC3)c2)CC1 [Example I-85, 1-{2-methoxy-5-[1-(methylamino)cyclopropyl]phenyl}-N-(quinoline-5-sulfonyl)cyclopropane-1-carboxamide]					> 10	++ (≥150 and <350)	3 to 10	< 50		
Cc1ccc2c(S(=O)(=O)NC(=O)C3(c4cc(C5CCC5)cnc4OCC(C)C)CC3)cccc2n1 [Example GI-53, 1-[5-cyclobutyl-2-(2-methylpropoxy)pyridin-3-yl]-N-(2-methylquinoline-5-sulfonyl)cyclopropane-1-carboxamide]	+++ (≥350)	< 3	> 150	< 3						
COc1ccccc1C1(C(=O)NS(=O)(=O)c2cccc3ncccc23)CCC1 [II-6]					3 to 10	+++ (≥350)	< 3	> 150		
COc1ncc(C2CCC2)cc1C1(C(=O)NS(=O)(=O)c2cccc3ncccc23)CC1 [Example I-4, 1-(5-cyclobutyl-2-methoxypyridin-3-yl)-N-(quinoline-5-sulfonyl)cyclopropane-1-carboxamide]					< 3	+++ (≥350)	< 3	> 150		
COc1ccc(Br)cc1C1(C(=O)NS(=O)(=O)c2cccc3c2CCCN3)CC1 [Example I-11, 1-(5-bromo-2-methoxyphenyl)-N-(1,2,3,4-tetrahydroquinoline-5-sulfonyl)cyclopropane-1-carboxamide]					< 3	+++ (≥350)	< 3	> 150		
Cc1ccc2c(S(=O)(=O)NC(=O)C3(c4cc(C5CCC5)cnc4N4CCCC4)CC3)cccc2n1 [Example GI-29, 1-[5-cyclobutyl-2-(pyrrolidin-1-yl)pyridin-3-yl]-N-(2-methylquinoline-5-sulfonyl)cyclopropane-1-carboxamide]	+++ (≥350)	< 3	> 150	< 3						
COCCOc1ncc(C)cc1C1(C(=O)NS(=O)(=O)c2cccc3ncccc23)CC1 [GII-52, 1-[2-(2-methoxyethoxy)-5-methylpyridin-3-yl]-N-(quinoline-5-sulfonyl)cyclopropane-1-carboxamide]	++ (≥150 and <350)	3 to 10	50 to 150	3 to 10						
CCc1cnc(N2CCOCC2)c(C2(C(=O)NS(=O)(=O)c3cccc4ncccc34)CC2)c1 [GIII-23]	++ (≥150 and <350)	> 10	50 to 150	> 10						
O=C(NS(=O)(=O)Cc1ccccc1)C1(c2ccc(Cl)c(Cl)c2)CC1 [Example III-115, 1-(3,4-dichlorophenyl)-N-(phenylmethanesulfonyl)cyclopropane-1-carboxamide]					> 10	+ (<150)	> 10	< 50		
COc1ccc(C(C)C)cc1C1(C(=O)NS(=O)(=O)c2cccc3nc(C)ccc23)CC1 [Example I-71, 1-[2-methoxy-5-(propan-2-yl)phenyl]-N-(2-methylquinoline-5-sulfonyl)cyclopropane-1-carboxamide]					< 3	+++ (≥350)	< 3	> 150		
COc1ncc(C2CCC2)cc1C1(C(=O)NS(=O)(=O)c2cccc3cnn(C)c23)CC1 [II-13]					< 3	+++ (≥350)	< 3	> 150		
Cc1ccc(OC(C)C)c(C2(C(=O)NS(=O)(=O)c3cccc4ncccc34)CC2)c1 [Example I-77, 1-{5-methyl-2-[(propan-2-yl)oxy]phenyl}-N-(quinoline-5-sulfonyl)cyclopropane-1-carboxamide]					< 3	+++ (≥350)	< 3	> 150		
O=C1CCCN1c1ccc(S(=O)(=O)NC(=O)C2(c3ccc(Cl)cc3Cl)CC2)cc1 [Example III-16, 1-(2,4-dichlorophenyl)-N-[4-(2-oxopyrrolidin-1-yl)benzene-1-sulfonyl]cyclopropane-1-carboxamide]					> 10	+ (<150)	> 10	< 50		
COc1ccc(C(C)(C)OC)cc1C1(C(=O)NS(=O)(=O)c2cccc3[nH]ccc23)CC1 [II-88]					3 to 10	+++ (≥350)	< 3	> 150		
COCC1CCN(c2ncc(C3CCC3)cc2C2(C(=O)NS(=O)(=O)c3cccc4[nH]ccc34)CC2)CC1 [Example GI-118, 1-{5-cyclobutyl-2-[4-(methoxymethyl)piperidin-1-yl]pyridin-3-yl}-N-(1H-indole-4-sulfonyl)cyclopropane-1-carboxamide]	+++ (≥350)	< 3	> 150	< 3						
COCCOc1cnc(OC)cc1C1(C(=O)NS(=O)(=O)c2cccc3ncccc23)CC1 [GIII-11]	++ (≥150 and <350)		50 to 150						++^a	++^a
COc1cc(C2(C(=O)NS(=O)(=O)c3cccc4ncccc34)CC2)c(Cl)cn1 [GII-6, 1-(5-chloro-2-methoxypyridin-4-yl)-N-(quinoline-5-sulfonyl)cyclopropane-1-carboxamide]	++ (≥150 and <350)	3 to 10	50 to 150	3 to 10						
O=C(NS(=O)(=O)c1cccc2ncccc12)C1(c2cccc(Br)c2)CC1 [Example III-93, 1-(3-bromophenyl)-N-(quinoline-5-sulfonyl)cyclopropane-1-carboxamide]					3 to 10	+++ (≥350)	3 to 10	> 150		
COc1ccc(C2CCC2)cc1C1(C(=O)NS(=O)(=O)c2cccc3[nH]ncc23)CC1 [Example I-56, 1-(5-cyclobutyl-2-methoxyphenyl)-N-(1H-indazole-4-sulfonyl)cyclopropane-1-carboxamide]					< 3	+++ (≥350)	< 3	> 150		
COc1cc(C2(C(=O)NS(=O)(=O)c3cccc4ccccc34)CC2)ccc1C [II-2]					3 to 10	+++ (≥350)	3 to 10	> 150		
Cc1cnc(OCC(C)C)c(C2(C(=O)NS(=O)(=O)c3cccc4[nH]ccc34)CC2)c1 [Example GI-44, N-(1H-indole-4-sulfonyl)-1-[5-methyl-2-(2-methylpropoxy)pyridin-3-yl]cyclopropane-1-carboxamide]	+++ (≥350)	< 3	> 150	< 3						
COc1ccc(C2CCC2)cc1C1(C(=O)NS(=O)(=O)c2cccc3c2CCCN3)CCC1 [Example I-10, 1-(5-cyclobutyl-2-methoxyphenyl)-N-(1,2,3,4-tetrahydroquinoline-5-sulfonyl)cyclobutane-1-carboxamide]					3 to 10	+++ (≥350)	< 3	> 150		
